In patent publication US9216954B2, “Serine racemase inhibitor” (National University Corporation University of Toyama, priority 2012, dated 2015) one finds melting point data, which are given here for 30 molecules.

Molecules are shown by their SMILES.

One may read the melting point as the temperature of the solid-liquid transition. `O=C(CNS(=O)(=O)Cc1ccccc1)Nc1c(F)cccc1F` [DR-1, N-(2,6-difluorophenyl)-2-phenylmethanesulfonylaminoacetamide]: the melting point fell in the range of 141 to 142 °C.
Take `Cc1ccc(S(=O)(=O)NCC(=O)Nc2c(F)cccc2F)cc1` [DR-2, N-(2,6-Difluoro-phenyl)-2-(toluene-4-sulfonylamino)-acetamide]: the melting point was 129 to 130 °C.
In the case of `CC(NC(=O)CNS(=O)(=O)Cc1ccccc1)c1ccccc1` (stereo not drawn) [DR-3, N-(1-Phenyl-ethyl)-2-phenylmethanesulfonylamino-acetamide], the melting point was 147 to 148 °C.
With `Cc1ccc(S(=O)(=O)NCC(=O)NCc2ccc(Br)cc2)cc1` [DR-10, N-(4-Bromo-benzyl)-2-(toluene-4-sulfonylamino)-acetamide], the melting point fell in the range of 207 to 208 °C.
The same measure for `Cc1ccc(S(=O)(=O)NCC(=O)NCc2ccc(Br)cc2F)cc1` [DR-11, N-(4-Bromo-2-fluoro-benzyl)-2-(toluene-4-sulfonylamino)-acetamide]: 123 to 124 °C.
With `O=C(CNS(=O)(=O)Cc1ccccc1)Nc1cccc(Br)c1` [DR-12, N-(3-bromophenyl)-2-phenylmethanesulfonylaminoacetamide], the melting point is 215 to 216 °C.
Regarding `O=C(CNS(=O)(=O)Cc1ccccc1)Nc1ccc(Cl)cc1` [DR-14, N-(4-Chloro-phenyl)-2-phenylmethanesulfonylamino-acetamide], the melting point was in the range of 200 to 201 °C.
With `Cc1ccc(/C=C/S(=O)(=O)NCC(=O)NCc2ccc(Br)cc2)cc1` [DR-31, N-(4-Bromo-benzyl)-2-(2-p-tolyl-ethenesulfonylamino)-acetamide], the melting point lay in the range of 200 to 201 °C.
Molecule `COc1ccc(NC(=O)CNS(=O)(=O)/C=C/c2ccc(C)cc2)cc1` [DR-32, N-(4-Methoxy-phenyl)-2-(2-p-tolyl-ethenesulfonylamino)-acetamide] came in with a melting point of 145 to 146 °C.
The figure for `Cc1ccc(/C=C/S(=O)(=O)NCC(=O)Nc2ccc(Br)cc2)cc1` [DR-33, N-(4-Bromo-phenyl)-2-(2-p-tolyl-ethenesulfonylamino)-acetamide] is 216 to 219 °C; for `O=C(/C=C/c1ccc(Cl)cc1)NC(=S)NNC(=O)Cc1cccs1` [LW-1, 3-(4-Chloro-phenyl)-N—[N′-(2-thiophen-2-yl-acetyl)-hydrazinocarbothioyl]-acrylamide] it is 232 to 233 °C; for `O=C(/C=C/c1c(Cl)cc(Cl)cc1Cl)NC(=S)NNC(=O)Cc1cccs1` [LW-2, N—[N′-(2-Thiophen-2-yl-acetyl)-hydrazinocarbothioyl]-3-(2,4,6-trichloro-phenyl)-acrylamide] it is 219 to 220 °C.
Molecule `O=C(/C=C/c1ccc([N+](=O)[O-])cc1)NC(=S)NNC(=O)Cc1cccs1` [LW-3, 3-(4-Nitro-phenyl)-N—[N′-(2-thiophen-2-yl-acetyl)-hydrazinocarbothioyl]-acrylamide] gave a melting point of 222 to 223 °C.
The same measure for `Cc1ccc(/C=C/C(=O)NC(=S)NNC(=O)Cc2cccs2)cc1` [LW-4, N—[N′-(2-Thiophen-2-yl-acetyl)-hydrazinocarbothioyl]-3-p-tolyl-acrylamide]: 212 to 213 °C; for `COc1ccc(/C=C/C(=O)NC(=S)NNC(=O)Cc2cccs2)c(OC)c1` [LW-6, 3-(2,4-Dimethoxy-phenyl)-N—[N′-(2-thiophen-2-yl-acetyl)-hydrazinocarbothioyl]-acrylamide]: 207 to 208 °C.
`O=C(/C=C/c1cc(Br)cc(Br)c1)NC(=S)NNC(=O)Cc1cccs1` [LW-7, 3-(3,5-Dibromo-phenyl)-N—[N′-(2-thiophen-2-yl-acetyl)-hydrazinocarbothioyl]-acrylamide]: the melting point was in the range of 212 to 213 °C.
`CC(C)c1ccc(/C=C/C(=O)NC(=S)NNC(=O)Cc2cccs2)cc1` [LW-8, 3-(4-Isopropyl-phenyl)-N—[N′-(2-thiophen-2-yl-acetyl)-hydrazinocarbothioyl]-acrylamide]: the melting point is 201 to 202 °C.
`O=C(/C=C/c1ccc(-c2ccccc2)cc1)NC(=S)NNC(=O)Cc1cccs1` [LW-9, 3-Biphenyl-4-yl-N—[N′-(2-thiophen-2-yl-acetyl)-hydrazinocarbothioyl]-acrylamide] came in with a melting point of 231 to 232 °C.
Molecule `COc1cccc(OC)c1/C=C/C(=O)NC(=S)NNC(=O)Cc1cccs1` [LW-10, 3-(2,6-Dimethoxy-phenyl)-N—[N′-(2-thiophen-2-yl-acetyl)-hydrazinocarbothioyl]-acrylamide] yielded a melting point of 220 to 221 °C.
The same measure for `O=C(/C=C/c1c(F)cc(F)cc1F)NC(=S)NNC(=O)Cc1cccs1` [LW-11, N—[N′-(2-Thiophen-2-yl-acetyl)-hydrazinocarbothioyl]-3-(2,4,6-trifluoro-phenyl)-acrylamide]: 207 to 208 °C; for `O=C(/C=C/c1ccc(F)cc1)NC(=S)NNC(=O)Cc1ccccc1` [LW-12, 3-(4-Fluoro-phenyl)-N—(N′-phenylacetyl-hydrazinocarbothioyl)-acrylamide]: 212 to 213 °C; for `O=C(/C=C/c1c(F)cc(F)cc1F)NC(=S)NNC(=O)Cc1ccccc1` [LW-14, N—(N′-Phenylacetyl-hydrazinocarbothioyl)-3-(2,4,6-trifluoro-phenyl)-acrylamide]: 210 to 211 °C.
As to `O=C(/C=C/c1ccc(F)cc1)NC(=S)NNC(=O)c1cccs1` [LW-16, 3-(4-Fluoro-phenyl)-N—[N′-(thiophene-2-carbonyl)-hydrazinocarbothioyl]-acrylamide], the melting point lay in the range of 217 to 218 °C.
On to `O=C(Cc1cccs1)NNC(=S)NC(=O)Cc1ccccc1` [LW-18, 2-Phenyl-N—[N′-(2-thiophen-2-yl-acetyl)-hydrazinocarbothioyl]-acetamide], for which the melting point lay within 161 to 162 °C.
Take `COc1cccc(OC)c1/C=C/C(=O)NC(=S)NNC(=O)c1cccs1` [LW-19, 3-(2,6-Dimethoxy-phenyl)-N—[N′-(thiophene-2-carbonyl)-hydrazinocarbothioyl]-acrylamide]: the melting point is 209 to 210 °C.
Molecule `O=C(/C=C/c1cc(Br)cc(Br)c1)NC(=S)NNC(=O)c1cccs1` [LW-20, 3-(3,5-Dibromo-phenyl)-N—[N′-(thiophene-2-carbonyl)-hydrazinocarbothioyl]-acrylamide] returned a melting point of 217 to 218 °C.
For the molecule `O=C(/C=C/c1cc(Br)cc(Br)c1)NC(=S)NNC(=O)Cc1ccc(F)cc1` [LW-21, 3-(3,5-Dibromo-phenyl)-N-{N′-[2-(4-fluoro-phenyl)-acetyl]hydrazinocarbothioyl}-acrylamide], the melting point lay within 195 to 196 °C.
`O=C(Cc1ccc(F)cc1)NNC(=S)NC(=O)Cc1ccccc1` [LW-22, N-{N′-[2-(4-Fluoro-phenyl)-acetyl]-hydrazinocarbothioyl}-2-phenyl-acetamide]: the melting point is 182 to 183 °C.
Take `O=C(/C=C/c1cc(Br)cc(Br)c1)NC(=S)NNC(=O)c1ccccc1` [LW-23, N—(N′-Benzoyl-hydrazinocarbothioyl)-3-(3,5-dibromo-phenyl)-acrylamide]: the melting point was in the range of 224 to 225 °C.
In turn, `Cc1cccc(CC(=O)NNC(=S)NC(=O)/C=C/c2cc(Br)cc(Br)c2)c1` [LW-24, 3-(3,5-Dibromo-phenyl)-N—[N′-(2-m-tolyl-acetyl)-hydrazinocarbothioyl]-acrylamide] had a melting point of 203 to 204 °C.
